Data taken from patent US7084155B2, “Chemokine receptor binding heterocyclic compounds” (AnorMED, priority 2000, dated 2006).

Experiments:
[1] = test system: SDF-1 induced Ca flux in SUP-T1 cells; assay: Inhibition of chemokine (SDF-1) induced Ca flux measured on a FLIPR; type: cell-based; details: Homo sapiens
Description: Inhibition of Chemokine Induced Ca Flux Measured on a FLIPR (Molecular Devices) Loading dye: Fluo-3, AM (Molecular Probes F-1241) is dissolved in anhydrous DMSO and stored frozen in aliquots. To increase the solubility of the dye in the loading medium, 10% (w/v) pluronic acid (Molecular Probes F-127) is added to the Fluo-3 stock solution immediately before use. HBSS+20 mM Hepes buffer+0.2% BSA, pH 7.4. HBSS 10× [(w/o phenol red and sodium bicarbonate (Gibco 14 065–049)]; Hepes buffer 1M (Gibco 15 630–056), BSA (Sigma A3675). The flux buffer is vacuum-filtered and stored refrigerated for a maximum of 5 days. Before use in the experiment, the buffer is warmed at 37° C. in a waterbath. The test compounds were diluted in flux buffer to the desired concentration and added to 4 wells of a black microplate (4 parallel measurements per compound). The following control wells were used: 100% response control (no inhibition), flux buffer was added; 100% inhibition control: chemokine was added at 5-times the concentration required to induce a Ca flux. The chemokines are diluted in flux buffer to concentrations that are 4-fold higher than the desired concentrations required for stimulation of the cells (i.e. 2.5 nM for SDF-1[…] and 0.6 nM for RANTES). The chemokines were added to untreated 96-well Sero well compound plates (International Medical, Sterilin code 611F96). In the negative control well's (baseline monitoring), flux buffer is added instead of chemokine. As a positive control to check for dye loading efficiency, 20 μM digitonin (final concentration) was also included. The agonist plate was incubated in the FLIPR (37° C.) for 15–30 min. Cell Loading Protocol for Measuring Inhibition of SDF-1[…] Induced Ca Flux in SUP-T1 Cells. SUP-T1 cells were centrifuged at room temperature (RT) and re-suspended in loading medium (RPMI-1640 containing 2% FBS and 4 μM Fluo-3, AM). The cells were incubate at room temperature for 45 min. then washed twice in flux buffer then incubated in flux buffer at room temperature for 10 min. The cells were centrifuged and re-suspended in flux buffer at a density of 3×10^6 cells per mL. A 100 uL aliquot of the cell suspension (3×10^5 cells) was added to each well of a black microplate (Costar 3603), which already contains 50 uL of a solution of the test compound (at concentrations that are 3-fold higher than the desired final compound concentrations). The microplate is then gently centrifuged at room temperature. Homogeneous spreading of the cells on the bottom of the microplate wells was then confirmed with a microscope and the microplate was incubated in the FLIPR (37° C.) for 10 min. prior to testing. Fluorescence Measurements as a Function of Time on the FLIPR The FLIPR settings (camera exposure time and laser power) are adjusted to obtain initial fluorescence values between 8,000 and 10,000 units. After monitoring a 20 second-baseline, the agonist (chemokine) (50 uL) is added by automatic pipettor with black pipette tips. Fluorescence is measured simultaneously in all wells of the microplate every 2 seconds (first 2 min) and thereafter every 6 seconds (additional 2 min). The average ca-flux measured in each set of 4 identical wells (one test compound) was calculated by the FLIPR software.

HIV-1 NL4.3 or IIIB = assay: Inhibition of HIV-1 (NL4.3 or IIIB, CXCR4 using) replication in MT-4 cells, MTT viability; type: cell-based; details: Human immunodeficiency virus 1, IIIB, MT4, concentration protecting 50% of virus-infected cells against viral cytopathicity
Description: Assay for Inhibition of HIV-1 (NL4.3) Replication in MT-4 Cells Inhibition of HIV-1 NL4.3 (or IIIB, CXCR4 using) replication assays were performed as previously described (Bridger et al. J. Med. Chem. 1999, 42, 3971-3981; De […] et al. Proc. Natl. Acad. Sci, 1992, 89, 5286-5290; De […] et al. Antimicrob. Agents Chemother. 1994, 38, 668-674; Bridger et al. J. Med. Chem. 1995, 38, 366-378; Schols et al. J. Exp. Med., 1997, 186, 1383-1388). Anti-HIV activity and cytotoxicity measurements were carried out in parallel. They were based on the viability of MT-4 cells that had been infected with HIV in the presence of various concentrations of the test compounds. After the MT-4 cells were allowed to proliferate for 5 days, the number of viable cells was quantified by a tetrazolium-based colorimetric 3-(4,5-dimethylthiazol-2-yl)-2,5-diphenyltetrazolium bromide (MTT) procedure in 96-well microtrays. In all of these assays, viral input (viral multiplicity of infection, MOI) was 0.01, or 100 times the 50% cell culture infective dose (CCID50). The EC50 was defined as the concentration required to protect 50% of the virus-infected cells against viral cytopathicity.

Compound: Fc1ccc2nc(CN(Cc3ccc(CNCc4ccccn4)cc3)C3CCCc4cccnc43)[nH]c2c1 (centres unmarked) [Example 3, N-(2-pyridinylmethyl)-N′-(5-fluoro-1-H-benzimidazol-2-ylmethyl)-N′-(5,6,7,8-tetrahydro-8-quinolinyl)-1,4-benzenedimethanamine]
- inhibition at 20 µg/mL [1]: > 20%
- EC50 (HIV-1 NL4.3 or IIIB): < 20 µg/mL

Compound: Cc1ccc2nc(CN(Cc3ccc(CNCc4ccccn4)cc3)C3CCCc4cccnc43)[nH]c2c1C (centres unmarked) [Example 4, N-(2-pyridinylmethyl)-N′-(4,5-dimethyl-1-H-benzimidazol-2-ylmethyl)-N′-(5,6,7,8-tetrahydro-8-quinolinyl)-1,4-benzenedimethanamine]
- inhibition at 20 µg/mL [1]: > 20%
- EC50 (HIV-1 NL4.3 or IIIB): < 20 µg/mL

Compound: FC(F)(F)c1cccc2nc(CN(Cc3ccc(CNCc4ccccn4)cc3)C3CCCc4cccnc43)[nH]c12 (centres unmarked) [Example 5, N-(2-pyridinylmethyl)-N′-(4-trifluoromethyl-1-H-benzimidazol-2-ylmethyl)-N′-(5,6,7,8-tetrahydro-8-quinolinyl)-1,4-benzenedimethanamine]
- inhibition at 20 µg/mL [1]: > 20%
- EC50 (HIV-1 NL4.3 or IIIB): < 20 µg/mL

Compound: COC(=O)c1ccc2[nH]c(CN(Cc3ccc(CNCc4ccccn4)cc3)C3CCCc4cccnc43)nc2c1 (centres unmarked) [Example 6, N-(2-pyridinylmethyl)-N′-(5-carboxymethyl-1-H-benzimidazol-2-ylmethyl)-N′-(5,6,7,8-tetrahydro-8-quinolinyl)-1,4-benzenedimethanamine]
- inhibition at 20 µg/mL [1]: > 20%
- EC50 (HIV-1 NL4.3 or IIIB): < 20 µg/mL

Compound: Oc1cccc2[nH]c(CN(Cc3ccc(CNCc4ccccn4)cc3)C3CCCc4cccnc43)nc12 (centres unmarked) [Example 7, N-(2-pyridinylmethyl)-N′-(4-hydroxy-1-H-benzimidazol-2-ylmethyl)-N′-(5,6,7,8-tetrahydro-8-quinolinyl)-1,4-benzenedimethanamine]
- inhibition at 20 µg/mL [1]: > 20%
- EC50 (HIV-1 NL4.3 or IIIB): < 20 µg/mL

Compound: O=C(c1ccccc1)c1ccc2[nH]c(CN(Cc3ccc(CNCc4ccccn4)cc3)C3CCCc4cccnc43)nc2c1 (centres unmarked) [Example 9, N-(2-pyridinylmethyl)-N′-(5-benzoyl-1H-benzimidazol-2-ylmethyl)-N′-(5,6,7,8-tetrahydro-8-quinolinyl)-1,4-benzenedimethanamine]
- inhibition at 20 µg/mL [1]: > 20%
- EC50 (HIV-1 NL4.3 or IIIB): < 20 µg/mL

Compound: c1ccc(CNCc2ccc(CN(Cc3nc4cccnc4[nH]3)C3CCCc4cccnc43)cc2)nc1 (centres unmarked) [Example 10, N-(2-pyridinylmethyl)-N′-[(1H)-4-azabenzimidazol-2-ylmethyl]-N′-(5,6,7,8-tetrahydro-8-quinolinyl)-1,4-benzenedimethanamine]
- inhibition at 20 µg/mL [1]: > 20%
- EC50 (HIV-1 NL4.3 or IIIB): < 20 µg/mL

Compound: Clc1ccc2[nH]c(CN(Cc3ccc(CNCc4ccccn4)cc3)C3CCCc4cccnc43)nc2c1 (centres unmarked) [Example 11, N-(2-pyridinylmethyl)-N′-[5-chloro-1H-benzimidazol-2-ylmethyl]-N′-(5,6,7,8-tetrahydro-8-quinolinyl)-1,4-benzenedimethanamine]
- inhibition at 20 µg/mL [1]: > 20%
- EC50 (HIV-1 NL4.3 or IIIB): < 20 µg/mL

Compound: COc1ccc2nc(CN(Cc3ccc(CNCc4ccccn4)cc3)C3CCCc4cccnc43)[nH]c2c1 (centres unmarked) [Example 12, N-(2-pyridinylmethyl)-N′-[5-methoxy-1H-benzimidazol-2-ylmethyl]-N′-(5,6,7,8-tetrahydro-8-quinolinyl)-1,4-benzenedimethanamine]
- inhibition at 20 µg/mL [1]: > 20%
- EC50 (HIV-1 NL4.3 or IIIB): < 20 µg/mL

Compound: COc1ccc(OC)c2[nH]c(CN(Cc3ccc(CNCc4ccccn4)cc3)C3CCCc4cccnc43)nc12 (centres unmarked) [Example 15, N-(2-pyridinylmethyl)-N′-[4,7-dimethoxy-1H-benzimidazol-2-ylmethyl]-N′-(5,6,7,8-tetrahydro-8-quinolinyl)-1,4-benzenedimethanamine]
- inhibition at 20 µg/mL [1]: > 20%
- EC50 (HIV-1 NL4.3 or IIIB): < 20 µg/mL

Compound: c1ccc(CNCc2ccc(CN(Cc3nc4ccccc4s3)C3CCCc4cccnc43)cc2)nc1 (centres unmarked) [Example 16, N-(2-pyridinylmethyl)-N′-(benzothiazol-2-ylmethyl)-N′-(5,6,7,8-tetrahydro-8-quinolinyl)-1,4-benzenedimethanamine]
- EC50 (HIV-1 NL4.3 or IIIB): < 20 µg/mL

Compound: Cc1cccc2nc(CN(Cc3ccc(CNCc4ccccn4)cc3)C3CCCc4cccnc43)[nH]c12 (centres unmarked) [Example 20, N-(2-pyridinylmethyl)-N′-(4-methylbenzimidazol-2-ylmethyl)-N′-(5,6,7,8-tetrahydro-8-quinolinyl)-1,4-benzenedimethanamine]
- inhibition at 20 µg/mL [1]: > 20%
- EC50 (HIV-1 NL4.3 or IIIB): < 20 µg/mL

Compound: Fc1cccc2nc(CN(Cc3ccc(CNCc4ccccn4)cc3)C3CCCc4cccnc43)[nH]c12 (centres unmarked) [Example 21, N-(2-pyridinylmethyl)-N′-(4-fluorobenzimidazol-2-ylmethyl)-N′-(5,6,7,8-tetrahydro-8-quinolinyl)-1,4-benzenedimethanamine]
- inhibition at 20 µg/mL [1]: > 20%
- EC50 (HIV-1 NL4.3 or IIIB): < 20 µg/mL

Compound: Brc1cccc2nc(CN(Cc3ccc(CNCc4ccccn4)cc3)C3CCCc4cccnc43)[nH]c12 (centres unmarked) [Example 22, N-(2-pyridinylmethyl)-N′-(4-bromobenzimidazol-2-ylmethyl)-N′-(5,6,7,8-tetrahydro-8-quinolinyl)-1,4-benzenedimethanamine]
- inhibition at 20 µg/mL [1]: > 20%
- EC50 (HIV-1 NL4.3 or IIIB): < 20 µg/mL

Compound: c1ccc(CNCc2ccc(CN(CCc3nc4ccccc4[nH]3)C3CCCc4cccnc43)cc2)nc1 (centres unmarked) [Example 23]
- inhibition at 20 µg/mL [1]: > 20%
- EC50 (HIV-1 NL4.3 or IIIB): < 20 µg/mL

Compound: c1ccc(CNCc2ccc(CN(CCCc3nc4ccccc4[nH]3)C3CCCc4cccnc43)cc2)nc1 (centres unmarked) [Example 24, N-(2-pyridinylmethyl)-N′-[3-(1H-benzimidazol-2-yl)prop-1-yl]-N′-(5,6,7,8-tetrahydro-8-quinolinyl)-1,4-benzenedimethanamine]
- inhibition at 20 µg/mL [1]: > 20%
- EC50 (HIV-1 NL4.3 or IIIB): < 20 µg/mL

Compound: COc1ccc(-c2cnc(CN(Cc3ccc(CNCc4ccccn4)cc3)C3CCCc4cccnc43)[nH]2)cc1 (centres unmarked) [Example 26, N-(2-pyridinylmethyl)-N′-[4-(4-methoxyphenyl)-1H-imidazol-2-ylmethyl]-N′-(5,6,7,8-tetrahydro-8-quinolinyl)-1,4-benzenedimethanamine]
- inhibition at 20 µg/mL [1]: > 20%
- EC50 (HIV-1 NL4.3 or IIIB): < 20 µg/mL

Compound: Fc1ccc(-c2c[nH]c(CN(Cc3ccc(CNCc4ccccn4)cc3)C3CCCc4cccnc43)n2)cc1 (centres unmarked) [Example 36, N-(2-Pyridinylmethyl)-N′-[4-(4-fluorophenyl)-1H-imidazol-2-ylmethyl]-N′-(5,6,7,8-tetrahydro-8-quinolinyl)-1,4-benzenedimethanamine]
- inhibition at 20 µg/mL [1]: > 20%
- EC50 (HIV-1 NL4.3 or IIIB): < 20 µg/mL

Compound: CCOc1cccnc1CNCc1ccc(CN(Cc2nc3ccccc3[nH]2)C2CCCc3cccnc32)cc1 (centres unmarked) [Example 69, N-(3-ethoxy-2-pyridinylmethyl)-N′-(1H-benzimidazol-2-ylmethyl)-N′-(5,6,7,8-tetrahydro-8-quinolinyl)-1,4-benzenedimethanamine]
- EC50 (HIV-1 NL4.3 or IIIB): < 20 µg/mL

Compound: [O-][n+]1ccccc1CNCc1ccc(CN(Cc2nc3ccccc3[nH]2)C2CCCc3cccnc32)cc1 (centres unmarked) [Example 70, N-(1-oxo-2-pyridinylmethyl)-N′-(1H-benzimidazol-2-ylmethyl)-N′-(5,6,7,8-tetrahydro-8-quinolinyl)-1,4-benzenedimethanamine]
- EC50 (HIV-1 NL4.3 or IIIB): < 20 µg/mL

Compound: c1ccc(N[C@H]2CCCC[C@@H]2N(Cc2ccc(CNCc3ccccn3)cc2)Cc2nc3ccccc3[nH]2)cc1 [Example 131]
- EC50 (HIV-1 NL4.3 or IIIB): < 20 µg/mL
